How the values were obtained:
[1] = system: Tau phosphorylation at Ser 396 in SH-SY5Y cells; experiment: Aβ25-35-induced Tau phosphorylation (Ser396) in SH-SY5Y cells, Western blotting; type: cell-based, human; settings: 100 nM, inhibitors 1 hour, then Aβ25–35 6 hours, Western blot
Experimental: It has been implicated that GSK-3β is involved in multiple cellular processes, and its ability to hyperphosphorylate Tau protein and induce neurofibrillary tangle was intensively studied. Therefore, the cell-based assay examining Tau phosphorylation at Serine 396 represents a direct functional assay to measure the cellular activity of GSK-3β inhibitors. Compounds 7c, 7f, 7j–l and 7o–q were tested for the ability to reduce Tau phosphorylation at Ser 396 in human neuroblastoma SH-SY5Y cells. LiCl, a well-known inhibitor of GSK-3β [24], was used as a positive control in this assay. […] The Aβ-induced Tau hyperphosphorylation results in neurofibrillary tangle formation, which plays an important role in Alzheimer’s disease. […] In addition, the predictions about these compounds’ brain permeability were performed using ADME module with Discovery Studio 2.1 software package.
SH-SY5Y human neuroblastoma cells were obtained from the American Type Culture Collection (ATCC, Manassas, VA, USA). Cells were cultured in 1:1 DMEM:Ham's F12 containing 10% (v/v) fetal bovine serum (HyClone, Logan, UT, USA), 1% penicillin, and 1% streptomycin at a humidified atmosphere with 5% CO2. The medium was changed every 2 days. […] Antigen-antibody complexes were detected by the ECL Kit.

GSK-3β = molecular target: T1, GSK-3β (Homo sapiens, UniProt P49841); experiment: GSK-3β kinase assay (Z'-LYTE Kinase Assay kit Ser/Thr 9 Peptide); type: biochemical; settings: 50 nM enzyme, 30 μM ATP, 2 μM substrate peptide; triplicate; mean ± SE; read-out: GSK-3β inhibitory activity IC50 (nM) ± SE
T1 construct: GST (N, cleaved yes); made in house; host or cells: Escherichia coli BL21-Codon Plus (DE3)
Experimental: GSK3β belongs to CMGC family. Here, the other family members were used to evaluate the selectivity of GSK3β inhibitors, including PKC-epsilon (AGC family), JAK2 (TK family), Braf (TKL family), DRAK2 (CAMK family) and IKKβ (other family).The recombinant GST-GSK-3βprotein was expressed in Escherichia coli strain BL21-Codon Plus (DE3), purified by GSTrap affinity chromatography, and cleaved by thrombin. The GSK-3β kinase assay was carried out with the Z´-LYTETM Kinase Assay kit Ser/Thr 9 Peptide substrate (Invitrogen, Grand, NY, USA) in 10 μL reaction volume containing 50 nM enzyme, 30 μM ATP and 2 μM substrate peptide. Drak2 Proteins were presented by professor Jiang-ping Wu (Laboratory of Immunology, Research Centre, CHUM, Notre Dame Hospital, Pavilion DeSève). The Drak2 kinase reaction was performed in a final assay volume of 3.4 μL using the ADP-GLO Kinase Assay Kit (Promega, Madison, WI, USA), according the ADP-GLO protocol and read on an EnVision plate reader. The recombinant PKC-epsilon, IKKβ, and JAK2 with N-terminal His-tag were expressed using baculovirus expression system and purified with Ni-Beads. BRAF protein was from Carna Biosciences, Inc. (Kobe Port Island, Japan). And the related kinase reactions were performed in a final assay volume of 10 μL using the related HTRF Assay Kit (Cisbio, Codolet, France). Reactions were according the HTRF protocol and read on an EnVision plate reader. All reactions were carried out in triplicate. […] Data were expressed as mean ± SE.

T1 sequence (P49841 whole entry): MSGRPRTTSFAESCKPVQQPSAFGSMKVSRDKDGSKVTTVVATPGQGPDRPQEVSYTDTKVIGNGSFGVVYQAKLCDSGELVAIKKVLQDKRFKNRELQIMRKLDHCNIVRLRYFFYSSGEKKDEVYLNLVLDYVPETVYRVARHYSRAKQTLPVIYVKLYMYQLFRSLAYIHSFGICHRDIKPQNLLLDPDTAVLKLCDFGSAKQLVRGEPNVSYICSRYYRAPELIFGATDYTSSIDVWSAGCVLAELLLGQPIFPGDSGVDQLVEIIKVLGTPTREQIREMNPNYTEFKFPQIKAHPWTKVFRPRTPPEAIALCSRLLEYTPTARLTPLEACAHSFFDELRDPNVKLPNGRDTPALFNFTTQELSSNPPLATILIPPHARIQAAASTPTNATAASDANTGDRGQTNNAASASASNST

O=C1NC(=O)C(c2cn(CCCN3CCOCC3)c3cc(F)ccc23)=C1c1noc2ccccc12 [7f, 3-(Benzo[d]isoxazol-3-yl)-4-(6-fluoro-1-(3-morpholinopropyl)-1H-indol-3-yl)-1H-pyrrole-2,5-dione]
Effect on Aβ25-35-induced Tau phosphorylation at Ser 396 [1]: obviously reduce
IC50 (GSK-3β): 127 ± 3.2 nM

Source: article PMC6270165, “Synthesis and Biological Evaluation of 3-Benzisoxazolyl-4-indolylmaleimides as Potent, Selective Inhibitors of Glycogen Synthase Kinase-3β” (Molecules, 2013)
